Drawing on patent publication US12227517B2, “Pyridazinyl-thiazolecarboxamide compound” (Astellas Pharma Inc., priority 2019, dated 2025), this text covers EC50, IC50 and Antitumor effect for seven compounds.

Broadly, the IC50 is the concentration that inhibits the measured activity by half.

The test system of one test is Jurkat E6.1 cells. As to the kind of experiment: Evaluation of IL-2 production in human T cell leukemia cell line Jurkat E6.1 (TCR stimulation anti-CD3/anti-CD28). In kind it is cell-based. Particulars: concentration at which IL-2 increased to 10 times the solvent control, Jurkat E6.1, anti-CD3/anti-CD28, 24 hours, read-out: EC10fold. As to the method:
Test Example 2: Evaluation of IL-2 Production in Human T Cell Leukemia Cell Line Jurkat E6.1
The effect of the test compound on the IL-2 production by T cell receptor (TCR) stimulation (anti-CD3/anti-CD28) in Jurkat E6.1 cells (ECACC, 88042803) was evaluated.
A 5 μg/mL anti-CD3 antibody (eBioscience, Inc., OKT3 clone) diluted with phosphate buffer saline (PBS) was added to a 96-well plate (Iwaki & Co., Ltd.) at 50 μL/well, and left standing at 4° C. for 12 hours or more to provide an anti-CD3 antibody-coated plate in advance. When the plate was used for experiments, the plate was washed with 200 μL of PBS once, an anti-CD28 antibody (eBioscience, Inc., 28.2 clone) diluted to a concentration of […] with a culture medium (RPMI1640 (Sigma-Aldrich Co. LLC.) containing 10% fetal bovine serum (Hyclone Laboratories, Inc.)) was then added at 10 μL/well, and the plate was used for assay as a culture plate for TCR stimulation.
Subsequently, the test compound was mixed with Jurkat E6.1 cells in such a manner that an intended final concentration was obtained, and the mixture was plated at 90 μL/well so that the number of cells per well was 1×10^5 (that is, finally the culture was performed at 1×10^5 cells/100 μL/well). For culture cell conditions, the culture was performed at 37° C. in the presence of 5% CO2 using RPMI1640 medium containing 10% fatal bovine serum.
After 24 hours, the culture supernatant was collected, and IL-2 was quantitatively determined using AlphaLISA human IL2 Immunoassay Research Kit (PerkinElmer, Inc.). The IL-2 measurement was performed under Alpha Screen standard setting conditions (the fluorescence intensity at 570 nm was measured with an excitation wavelength of 680 nm) using EnVision 2104-0010 and EnVision 2104-0020 (PerkinElmer, Inc.). The IL-2 quantitative value of the solvent treatment control was set to 1, and the test compound concentration at which the IL-2 quantitative value of the test compound treatment sample increased to 10 times the IL-2 quantitative value of the control (EC10fold) was calculated by inverse estimation with the aid of Sigmoid-Emax model non-linear regression analysis. […] In the table, Ex represents the number of each Example described below.

The next test has as its target human recombinant DGK ξ (Homo sapiens (Human), UniProt Q13574). As to the kind of experiment: Evaluation of DGK ξ inhibitory effect (ADP-Glo Kinase Assay). In kind it is biochemical. The procedure:
Test Example 1: Evaluation of DGK ξ Inhibitory Effect
The inhibitory effect of a test compound on human recombinant DGK ξ (Carna Biosciences, Inc., 12-410-20N) was examined by the following method in which detection is performed with ADP-Glo™ Kinase Assay (Promega Corporation).
To a 384-well plate (Greiner Bio-One Co., Ltd.), 3 μL of a […] dissolved in an assay buffer (40 mM Tris-HCl pH 7.5, 10 mM MgCl2, 1 mM dithiothreitol (DTT) and 0.1 mg/mL bovine serum albumin (BSA)) (90 ng/mL) was added, and 3 μL of the test compound diluted with the same assay buffer was added so that an intended final concentration was obtained. The mixture was left standing at room temperature for 15 minutes, 3 μL of a substrate (150 μM 1-oleoyl-2-acetyl-sn-glycerol (Sigma-Aldrich Co. LLC.), 480 μM phosphatidylserine (Avanti Polar Lipids, Inc.) and 150 μM UltraPure-ATP (attached to ADP-Glo)) was then added, and the mixture was left standing at room temperature for 30 minutes to react. Thereafter, 3 μL of an ADP-Glo Reagent was added, and the mixture was left standing at room temperature for 40 minutes to stop the enzyme reaction. Further, 6 μL of a Kinase-Detection Reagent was added, the mixture was left standing at room temperature for 30 minutes, and the luminescence was then measured using ARVO X3 (PerkinElmer, Inc.). The half maximal inhibitory concentration (IC50) was calculated by Sigmoid-Emax model non-linear regression analysis, where the signal value in solvent treatment was set to 0% inhibition and the signal value without addition of the DGK ξ enzyme was set to 100% inhibition. […] In the table, Ex represents the number of each Example described below. Also, in the table, compound C (cpd. C) represents the test compound of the Example 199 described in the international publication WO 2008/054702.
On the technique in general: In ADP-Glo the light output rises with the ADP produced.

Another test has as its system MC38 cells. The experiment in a line: Antitumor effect in syngeneic mouse model bearing mouse colon adenocarcinoma cell line MC38. In kind it is in vivo. Particulars: relative tumor growth inhibition, MC38, C57BL/6J mice, oral, twice a day day 1-10 and once on day 11. As to the method:
Test Example 3: Evaluation of Antitumor Effect in Syngeneic Mouse Model Bearing Mouse Colon Adenocarcinoma Cell Line MC38
A cell suspension liquid prepared by suspending MC38 cells (supplied from National Cancer Institute) in PBS at 4.0×10^6 cells/mL was subcutaneously inoculated into 6-week-old female mice (C57BL/6J from Charles River Laboratories Japan, Inc.) in a volume of 50 μL. 4 days after the inoculation, the mice were grouped in such a manner that there was substantially no difference in tumor volume between groups, and administration of the test compound was started. The test was conducted with a solvent group and a test compound administration group each having 10 mice. 0.5% methylcellulose (Shin-Etsu Chemical Co., Ltd.) was orally administered to the solvent group, and 0.5% methylcellulose mixed with the test compound was orally administered to the test compound administration group. The administration was performed twice a day from day 1 to day 10 and once a day on day 11, and the tumor diameter and the body weight were measured twice a week. The following expression was used for calculation of the tumor volume. [tumor volume (mm^3)]=[tumor major diameter (mm)]×[tumor minor diameter (mm)]^2×0.5
The relative tumor growth inhibition (%) of the test compound was calculated, where the tumor volume of the test compound administration group immediately before the start of administration was set to 100% inhibition, and the tumor volume of the solvent group on the last day of administration was set to 0% inhibition. […] In the table, Ex represents the number of each Example described below.

A further test concerns B16-F1 cells. As to the kind of experiment: Antitumor effect in syngeneic mouse model bearing mouse melanoma cell line B16-F1. In kind it is in vivo. The conditions noted are these: relative tumor growth inhibition, B16-F1, oral. The procedure:
Test Example 4: Evaluation of Antitumor Effect in Syngeneic Mouse Model Bearing Mouse Melanoma Cell Line B16-F1
A cell suspension liquid prepared by suspending B16-F1 cells (ATCC, CRL-6323) in PBS at 2.0×10^6 cells/mL or 1.0×10^7 cells/mL was subcutaneously inoculated into 5-week-old female mice (C57BL/6J from Charles River Laboratories Japan, Inc.) in a volume of 50 μL. 5 days after the inoculation, the mice were grouped in such a manner that there was substantially no difference in tumor volume between groups, and administration of the test compound was started. The test was conducted with a solvent group and a test compound administration group each having 10 mice. 0.5% methylcellulose was orally administered to the solvent group, and 0.5% methylcellulose mixed with the test compound was orally administered to the test compound administration group. The administration was performed according to the regimen described in Table 4, and the tumor diameter and the body weight were measured twice a week. The following expression was used for calculation of the tumor volume. [tumor volume (mm^3)]=[tumor major diameter (mm)]×[tumor minor diameter (mm)]^2×0.5
The relative tumor growth inhibition (%) of the test compound was calculated, where the tumor volume of the test compound administration group immediately before the start of administration was set to 100% inhibition, and the tumor volume of the solvent group on the day after the last administration was set to 0% inhibition. […] In the table, Ex represents the number of each Example described below.

Sequence of human recombinant DGK ξ (Q13574 whole entry): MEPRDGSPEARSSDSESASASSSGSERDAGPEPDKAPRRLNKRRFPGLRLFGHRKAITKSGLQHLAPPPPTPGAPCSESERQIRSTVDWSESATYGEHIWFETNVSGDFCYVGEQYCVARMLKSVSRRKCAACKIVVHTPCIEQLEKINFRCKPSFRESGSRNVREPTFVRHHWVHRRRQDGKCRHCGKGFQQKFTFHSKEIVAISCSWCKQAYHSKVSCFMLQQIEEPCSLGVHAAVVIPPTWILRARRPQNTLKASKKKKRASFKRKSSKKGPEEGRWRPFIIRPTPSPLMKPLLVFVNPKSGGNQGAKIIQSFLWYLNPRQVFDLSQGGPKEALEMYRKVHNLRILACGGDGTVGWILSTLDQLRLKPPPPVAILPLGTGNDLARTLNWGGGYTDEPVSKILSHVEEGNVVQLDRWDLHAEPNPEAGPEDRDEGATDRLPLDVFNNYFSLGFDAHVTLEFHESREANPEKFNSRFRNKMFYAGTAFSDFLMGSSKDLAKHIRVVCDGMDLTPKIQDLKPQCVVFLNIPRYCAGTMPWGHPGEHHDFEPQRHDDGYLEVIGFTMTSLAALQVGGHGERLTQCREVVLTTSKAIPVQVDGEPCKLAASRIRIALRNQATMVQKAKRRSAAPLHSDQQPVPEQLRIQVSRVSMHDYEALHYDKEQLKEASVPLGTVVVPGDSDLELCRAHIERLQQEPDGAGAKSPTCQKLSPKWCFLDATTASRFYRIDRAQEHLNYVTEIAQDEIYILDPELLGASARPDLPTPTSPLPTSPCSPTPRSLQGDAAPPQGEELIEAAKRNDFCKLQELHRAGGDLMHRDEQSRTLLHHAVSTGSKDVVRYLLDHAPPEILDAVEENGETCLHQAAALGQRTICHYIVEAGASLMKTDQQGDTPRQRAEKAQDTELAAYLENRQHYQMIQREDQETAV

Take `NC[C@@H]1CCCN(c2c(NC(=O)c3csc(-c4ccnnc4)n3)ccc(Oc3cccc(F)c3)c2C(F)(F)F)C1` [Example 11]: in the test with Jurkat E6.1 cells, the EC50 came out at 32 nM. Further, the IC50 at human recombinant DGK ξ was determined as 19 nM. Also, in the test with MC38 cells (5 mg/kg), the Antitumor effect is on record as 63% Inhibition.

For `NC[C@@H]1CCCN(c2c(NC(=O)c3csc(-c4ccnnc4)n3)ccc(Oc3ccccc3)c2C(F)(F)F)C1` [Example 9, N-{2-[(3S)-3-(aminomethyl)piperidin-1-yl]-4-phenoxy-3-(trifluoromethyl)phenyl}-2-(pyridazin-4-yl)-1,3-thiazole-4-carboxamide], the Antitumor effect in the test on B16-F1 cells (0.5 mg/kg, 2/day, 10 days, 5 × 10^5 cells inoculated) came to 36% Inhibition; in the test on MC38 cells (5 mg/kg), 64% Inhibition. Besides, the EC50 with Jurkat E6.1 cells was 18 nM. Further, the half-inhibitory concentration (IC50) at human recombinant DGK ξ came out at 8 nM.

Regarding `NC[C@H]1CCCN1c1c(NC(=O)c2csc(-c3ccnnc3)n2)ccc(Oc2ccccc2)c1C(F)(F)F` [Example 34], the Antitumor effect is on record as 48% Inhibition in the test on B16-F1 cells (1.5 mg/kg, 2/day, 10 days, 5 × 10^5 cells inoculated) and 55% Inhibition in the test on MC38 cells (5 mg/kg). Further, the EC50 in the test with Jurkat E6.1 cells is 30 nM. Moreover, the IC50 on human recombinant DGK ξ was 12 nM.

On to `CN(C)[C@@H]1CCN2CCN(c3c(NC(=O)c4csc(-c5ccnnc5)n4)ccc(Oc4ccccc4)c3C(F)(F)F)C[C@@H]12` [Example 80], for which, in the test with B16-F1 cells (0.03 mg/kg, 1/day, 10 days, 1 × 10^5 cells inoculated), the Antitumor effect was 30% Inhibition. Moreover, in the test with Jurkat E6.1 cells, the EC50 stood at 5 nM. Moreover, at human recombinant DGK ξ, the IC50 was 0.7 nM.

`CNC[C@@H]1CCCN(c2c(NC(=O)c3csc(-c4ccnnc4)n3)ccc(Oc3ccccc3F)c2C(F)(F)F)C1.Cl` [Example 10]: the Antitumor effect with B16-F1 cells (0.1 mg/kg, 1/day, 8 days, 1 × 10^5 cells inoculated) was 42% Inhibition; with MC38 cells (4.7 mg/kg), 60% Inhibition. In the test on Jurkat E6.1 cells, the EC50 turned out to be 173 nM. For the same compound, the IC50 on human recombinant DGK ξ was determined as 8 nM.

In the case of `N[C@@H]1CCN2CCN(c3c(NC(=O)c4csc(-c5ccnnc5)n4)ccc(Oc4ccccc4)c3C(F)(F)F)C[C@@H]12` [Example 78, N-{2-[(8R,8aS)-8-aminohexahydropyrrolo[1,2-a]pyrazine-2(1H)-yl]-4-phenoxy-3-(trifluoromethyl)phenyl}-2-(pyridazin-4-yl)-1,3-thiazole-4-carboxamide], the Antitumor effect with B16-F1 cells (0.3 mg/kg, 1/day, 10 days, 1 × 10^5 cells inoculated) was determined as 30% Inhibition. For the same compound, in the test with Jurkat E6.1 cells, the EC50 was found to be 27 nM. For the same compound, the IC50 at human recombinant DGK ξ turned out to be 5 nM.

Turning to `NC[C@@H]1CCCN(c2c(NC(=O)c3csc(-c4ccnnc4)n3)ccc(Oc3ccccc3F)c2C(F)(F)F)C1` [Example 33], the EC50 with Jurkat E6.1 cells amounted to 9 nM. The IC50 at human recombinant DGK ξ is 5 nM. The same compound registered an Antitumor effect in the test on MC38 cells (5 mg/kg) of 36% Inhibition.
